“Also recorded” adds a separate entry of the source. Read-outs that look alike come from different tables or passages of the source.

A short description of data set [1]: Physical appearance of omega-3 emulsions on storage. The note with it: added in the oil phase. The format is physicochemical.
Data set [2] in a line: Physical and chemical stability monitoring of emulsion prototypes with different antioxidants and additives. The protocol: A variety of ophthalmic compositions were evaluated which contained antioxidants with the intent to prevent the degradation of the omega-3 oil components. A common problem with omega-3 oils is their propensity to degrade and become rancid over time.
Emulsion prototypes were designed using a range of excipients including different surfactants, antioxidants and aqueous additives. The physical and chemical stability of these prototype formulations were monitored over 3, 6 and/or 12 months at accelerated and/or long-term storage conditions. […] Details of these stability studies are provided in the examples herein.

Data set [3] can be described thus: Chemical stability of omega-3 oils in emulsions (FIG. 1, FIG. 2). The note with it: emulsions of Table 10.

Consider `COc1ccc(O)c(C(C)(C)C)c1` [BHA, Butylated hydroxyanisole], for which, in data set [1], the “Effect on physical stability of omega-3 oils in emulsion” value is listed as “improved physical stability”. Also, the “Effect of antioxidant or additive on stability of omega-3 oils” value (from here on “Effect of antioxidant or additive”) in data set [2] (in ophthalmic emulsions) is “stabilizing effect”.
For `OC[C@H]1O[C@H](O[C@H]2O[C@H](CO)[C@@H](O)[C@H](O)[C@H]2O)[C@H](O)[C@@H](O)[C@@H]1O` [trehalose], the “Effect of antioxidant or additive” value in data set [2] was “did not impact stability”.
In the case of `CC(=O)Oc1c(C)c(C)c2c(c1C)CCC(C)(CCC[C@H](C)CCC[C@H](C)CCCC(C)C)O2` (stereo partly drawn) [Vitamin E acetate], the “Effect of antioxidant or additive” value in data set [2] (in ophthalmic emulsions) is “did not show beneficial effects; also recorded: led to degradation of omega-3 oil”.
`Cc1c(C)c2c(c(C)c1O)CC[C@@](C)(CCC[C@H](C)CCC[C@H](C)CCCC(C)C)O2` [alpha tocopherol]: the “Effect of excipient on chemical stability of omega-3 oils in emulsion” value (“Effect of excipient” below) in data set [3] was “worsened the chemical stability”.
As to `CC(=O)C(=O)O` [pyruvate], the “Effect of excipient” value in data set [3] was “No significant impact”. For the same compound, the “Effect of antioxidant or additive” value in data set [2] is listed as “did not impact stability”.
As to `Cc1cc(C(C)(C)C)c(O)c(C(C)(C)C)c1` [BHT, 2,6-bis(1,1-dimethylethyl)-4-methylphenol], the “Effect on physical stability of omega-3 oils in emulsion” value in data set [1] is reported as “improved physical stability”. In data set [2], the “Effect of antioxidant or additive” value is on record as “stabilizing effect”.
On to `O=C([O-])CN(CCN(CC(=O)[O-])CC(=O)O)CC(=O)O.[Na+].[Na+]` [EDTA, edetate disodium], for which, in data set [3], the “Effect of excipient” value is reported as “No significant impact”. The “Effect of antioxidant or additive” value in data set [2] (in ophthalmic emulsions) is “did not impact stability”.
As to vitamin E, in data set [2], the “Effect of antioxidant or additive” value was “not effective”.
